Consider 7 compounds from article PMC7864192 (Cancers, 2021).

Data set [1] concerns GCPA113 T1.II patient-derived AGCT cell line. In words: Cell viability drug screen (Cell Titer Glo 2.0, 72 h), mono- and combination therapy, GCPA113T1.II. The settings on record: for pIC50: read-out: IC50 in monotherapy.
Experimental: (§1) Cell lines were seeded at a density of 500 cells/well in 40 uL in 384-well plates (Corning, NY, USA) with the Multidrop™ cell dispenser (Thermo Fischer Scientific, Waltham, MA, USA) and sealed with Breathe-Easy® membrane (Sigma-Aldrich, St. Louis, MO, USA) to prevent evaporation. […] For each cell line, three biological repeats and two technical repeats each were performed in order to ensure the validity of the drug screens. […] Subsequently, 11 drugs and 12 drug combinations were dispensed and all wells (excluding blanks and non-DMSO control wells) were normalized to 1% DMSO using the HP Tecan D300e Digital Dispenser (Hewlett-Packard, Palo Alto, CA, USA). […] Next, the plates were covered with the Breathe-Easy membrane and incubated. After 72 h, the Multidrop dispensed 15 uL per well of Cell Titer Glo 2.0 (Thermo Fischer Scientific, Waltham, MA, USA) and plates were incubated in the dark for 10 min. After incubation, luminescence excitation was assessed in the Spectramax reader (Molecular Devices, San Jose, CA, USA) (top read, luminescence excitation at 500 nm) and raw data were processed in Microsoft Excel to subtract background luminescence. The Z-factor, a mathematical method used to quantify the quality of a drug screen based on the calculation of the separation band between the values of the positive and negative controls, was utilized to assess the quality of drug screens [54]. Screens with a Z-factor value of >0.5 were used for further analysis.
(§2) Overall cell survival (in %) was plotted against the drug concentration range of each drug (in log10[μM]) using GraphPad Prism 8.3.1. Values that exceeded 100% survival (within +20% biological deviation) were normalized to 100% survival. Similarly, values below 0% cell survival (within −20% biological deviation) were normalized to 0% survival. Values exceeding this deviation were excluded. Dose–response curves were obtained using the model “log(inhibitor) vs. variable slope (normalized response)” to fit the dose–response curves and R^2 values were used to indicate how well the model fit the data (Supplementary Materials Figures S4 and S5). […] The IC50 values were calculated based on the Chou–Talalay method using Compusyn software [55]. For anti-hormonal treatment, mostly provided as maintenance therapy, we used IC10 values in addition to the IC50.
(§3) In addition to the 11 monotherapies, 12 drug combinations were tested (Table 3) simultaneously with the individual drug treatments in the same 384-well plate. […] Synergy was evaluated using the mass action law, a systematic analysis assessing dose–response dynamics in a cost-effective manner [56, 57]. The combination index (CI) was used to indicate antagonistic (CI > 1) additive (CI = 1) and synergistic (CI < 1) effects [55].
Data set [2] has as its system GCPA007 T2.IV patient-derived AGCT cell line. In words: Cell viability drug screen (Cell Titer Glo 2.0, 72 h), mono- and combination therapy, GCPA007T2.IV. As to conditions: for pIC50: read-out: IC50 in monotherapy.
Experimental: as §1, §2, §3
For data set [3], the system named is GCPA007 T2.I patient-derived AGCT cell line. Description: Cell viability drug screen (Cell Titer Glo 2.0, 72 h), mono- and combination therapy, GCPA007T2.I. The settings on record: for pIC50: read-out: IC50 in monotherapy.
Experimental: (§4) Cell lines were seeded at a density of 500 cells/well in 40 uL in 384-well plates (Corning, NY, USA) with the Multidrop™ cell dispenser (Thermo Fischer Scientific, Waltham, MA, USA) and sealed with Breathe-Easy® membrane (Sigma-Aldrich, St. Louis, MO, USA) to prevent evaporation. The SVOG-3e line was seeded at 1000 cells/well due to contact-dependent growth requirements. For each cell line, three biological repeats and two technical repeats each were performed in order to ensure the validity of the drug screens. […] Subsequently, 11 drugs and 12 drug combinations were dispensed and all wells (excluding blanks and non-DMSO control wells) were normalized to 1% DMSO using the HP Tecan D300e Digital Dispenser (Hewlett-Packard, Palo Alto, CA, USA). All drugs were applied in linear concentration ranges (Table 2), including 16 data points to enable combination drug testing at constant ratios (Table 3). Next, the plates were covered with the Breathe-Easy membrane and incubated. After 72 h, the Multidrop dispensed 15 uL per well of Cell Titer Glo 2.0 (Thermo Fischer Scientific, Waltham, MA, USA) and plates were incubated in the dark for 10 min. After incubation, luminescence excitation was assessed in the Spectramax reader (Molecular Devices, San Jose, CA, USA) (top read, luminescence excitation at 500 nm) and raw data were processed in Microsoft Excel to subtract background luminescence. […] Screens with a Z-factor value of >0.5 were used for further analysis.
(§5) Overall cell survival (in %) was plotted against the drug concentration range of each drug (in log10[μM]) using GraphPad Prism 8.3.1. Values that exceeded 100% survival (within +20% biological deviation) were normalized to 100% survival. Similarly, values below 0% cell survival (within −20% biological deviation) were normalized to 0% survival. Values exceeding this deviation were excluded. Dose–response curves were obtained using the model “log(inhibitor) vs. variable slope (normalized response)” to fit the dose–response curves and R^2 values were used to indicate how well the model fit the data (Supplementary Materials Figures S4 and S5). […] The maximum plasma concentration (Cmax) and the plasma concentration at steady state (Css) were used as toxicity thresholds. The Cmax was utilized for drugs in which short, high-dosage time courses are required, while the Css was used for maintenance therapy regimes such as anti-hormonal treatment. […] The IC50 values were calculated based on the Chou–Talalay method using Compusyn software [55]. For anti-hormonal treatment, mostly provided as maintenance therapy, we used IC10 values in addition to the IC50.
as §3
Data set [4] relates to GCPA108 T3.IV patient-derived AGCT cell line. In words: Cell viability drug screen (Cell Titer Glo 2.0, 72 h), mono- and combination therapy, GCPA108T3.IV. The settings on record: for pIC50: read-out: IC50 in monotherapy.
Experimental: (§6) Cell lines were seeded at a density of 500 cells/well in 40 uL in 384-well plates (Corning, NY, USA) with the Multidrop™ cell dispenser (Thermo Fischer Scientific, Waltham, MA, USA) and sealed with Breathe-Easy® membrane (Sigma-Aldrich, St. Louis, MO, USA) to prevent evaporation. The SVOG-3e line was seeded at 1000 cells/well due to contact-dependent growth requirements. For each cell line, three biological repeats and two technical repeats each were performed in order to ensure the validity of the drug screens. […] Subsequently, 11 drugs and 12 drug combinations were dispensed and all wells (excluding blanks and non-DMSO control wells) were normalized to 1% DMSO using the HP Tecan D300e Digital Dispenser (Hewlett-Packard, Palo Alto, CA, USA). All drugs were applied in linear concentration ranges (Table 2), including 16 data points to enable combination drug testing at constant ratios (Table 3). Next, the plates were covered with the Breathe-Easy membrane and incubated. After 72 h, the Multidrop dispensed 15 uL per well of Cell Titer Glo 2.0 (Thermo Fischer Scientific, Waltham, MA, USA) and plates were incubated in the dark for 10 min. After incubation, luminescence excitation was assessed in the Spectramax reader (Molecular Devices, San Jose, CA, USA) (top read, luminescence excitation at 500 nm) and raw data were processed in Microsoft Excel to subtract background luminescence. The Z-factor, a mathematical method used to quantify the quality of a drug screen based on the calculation of the separation band between the values of the positive and negative controls, was utilized to assess the quality of drug screens [54]. Screens with a Z-factor value of >0.5 were used for further analysis.
as §5, §3
The test system of data set [5] is GCPA113 T1.I patient-derived AGCT cell line. In words: Cell viability drug screen (Cell Titer Glo 2.0, 72 h), mono- and combination therapy, GCPA113T1.I. As to conditions: for pIC50: read-out: IC50 in monotherapy.
Experimental: as §1, §2, §3
Data set [6] has as its system GCPA096 T1.XVI patient-derived AGCT cell line. In words: Cell viability drug screen (Cell Titer Glo 2.0, 72 h), mono- and combination therapy, GCPA096T1.XVI. As to conditions: for pIC50: read-out: IC50 in monotherapy. Background: ATP-based viability assays read luminescence as a measure of living cells.
Experimental: as §4, §5, §3
Data set [7] deals with KGN cells (AGCT cell line). Description: Cell viability drug screen (Cell Titer Glo 2.0, 72 h), mono- and combination therapy, KGN.
Experimental: KGN was cultured in conditions identical to AGCT-patient-derived cell lines.
as §4, §2
Data set [8] relates to GCPA096 T1.II patient-derived AGCT cell line. In words: Cell viability drug screen (Cell Titer Glo 2.0, 72 h), mono- and combination therapy, GCPA096T1.II. The settings on record: for pIC50: Homo sapiens.
Experimental: as §4, §5, §3
Data set [9] relates to GCPA096 T1.V patient-derived AGCT cell line. In words: Cell viability drug screen (Cell Titer Glo 2.0, 72 h), mono- and combination therapy, GCPA096T1.V. The settings on record: for pIC50: Homo sapiens.
Experimental: as §4, §5, §3
In data set [10] the test system is GCPA113 T1.III patient-derived AGCT cell line. Description: Cell viability drug screen (Cell Titer Glo 2.0, 72 h), mono- and combination therapy, GCPA113T1.III. As to conditions: for pIC50: read-out: IC50 in monotherapy.
Experimental: as §1, §2, §3
In data set [11] the test system is GCPA028 T1.II patient-derived AGCT cell line. In words: Cell viability drug screen (Cell Titer Glo 2.0, 72 h), mono- and combination therapy, GCPA028. As to conditions: for pIC50: read-out: IC50 in monotherapy.
Experimental: as §4, §5, §3
Data set [12] has as its system GCPA096 T1.XV patient-derived AGCT cell line. In words: Cell viability drug screen (Cell Titer Glo 2.0, 72 h), mono- and combination therapy, GCPA096T1.XV. As to conditions: for pIC50: Homo sapiens.
Experimental: as §6, §5, §3
The test system of data set [13] is GCPA096 T1.I patient-derived AGCT cell line. Description: Cell viability drug screen (Cell Titer Glo 2.0, 72 h), mono- and combination therapy, GCPA096T1.I. As to conditions: for pIC50: read-out: IC50 in monotherapy.
Experimental: as §1, §2, §3
The conditions of data set [14]: cited from earlier work; for Cmax: read-out: Cmax/Css plasma.
The subject of data set [15] is AGCT cell lines. Description: Cell viability drug screen (72 h), summary over AGCT cell lines (12 patient-derived, with or without KGN). The data set is classed as cell-based, human.
Experimental: as §6, §5, §3
Setting [16] is: Homo sapiens, 72 h, read-out: IC50 in monotherapy.
Setting [17] is: 72 h, read-out: IC50 in monotherapy.
The mark [18] stands for this setting: human plasma maximum/steady state concentration, ref phase I/II clinical trials.

pIC50: −log10 of the molar value. Read-outs that look alike come from different tables or passages of the source.

For orientation: pIC50 means the IC50 on a negative log10 scale, so that one unit is a factor of ten. The term IC50 denotes the concentration at which inhibition is half-maximal. As for `Nc1nc2c(ncn2[C@H]2C[C@H](O)[C@@H](CO)O2)c(=S)[nH]1` [6thio-2dG, 6-THIO-2dG], the “DRI (Fa=0,5)” value was found to be 3.71 in data set [1] (GCPA113T1II, drug within Carbo+Pacli+6thio2dG); 0.95 in data set [2] (GCPA007T2IV, in combination Carbo+Pacli+6thio2dG); 2.27 in data set [3] (in Carbo+Pacli+6thio2dG (10:1:1), GCPA007T2I); 6.093 in [4] (GCPA108T3IV, in Carbo+Pacli+6thio2dG); 3.54 in data set [5] (GCPA113T1I, in Carbo+Pacli+6thio2dG); 1.78 in data set [6] (GCPA096T1XVI, in Carbo+Pacli+6thio2dG). Moreover, the “DRI (Fa=0,5)” value amounted to 4.961 in data set [7] (drug within Carbo+Pacli+6thio2dG); 12.35 in data set [8] (GCPA096T1II, drug within Carbo+Pacli+6thio2dG); 9.08 in [9] (GCPA096T1V, drug within Carbo+Pacli+6thio2dG); 4.5 in [10] (GCPA113T1III, drug within Carbo+Pacli+6thio2dG); 0.16 in data set [11] (GCPA028, in combination Carbo+Pacli+6thio2dG); 13.49 in data set [12] (GCPA096T1XV, drug within Carbo+Pacli+6thio2dG). Besides, the “DRI (Fa=0,5)” value in data set [13] (GCPA096T1I, in combination Carbo+Pacli+6thio2dG) is given as 10.9. For the same compound, the pIC50 was < 4.30 in [1] (GCPA113T1II, monotherapy); < 4.30 in data set [2] (GCPA007T2IV, monotherapy); < 4.30 in [3] (GCPA007T2I, cell viability 72 h after drug application); < 4.30 in data set [4] (GCPA108T3IV, monotherapy); < 4.30 in data set [5] (GCPA113T1I, monotherapy); 4.36 in data set [6] (GCPA096T1XVI, monotherapy). Besides, the pIC50 in data set [7] (read-out: IC50 in monotherapy, monotherapy) is < 4.30; in data set [10] (GCPA113T1III, monotherapy), < 4.30; in data set [11] (GCPA028, monotherapy) it was < 4.30; in data set [13] (GCPA096T1I, monotherapy) it was < 4.30. The IC50 in data set [8] (read-out: IC50 in monotherapy, GCPA096T1II, single drug, 72 h, unit not given (compared with Cmax/Css in uM)) is > 50 µM; in data set [9] (read-out: IC50 in monotherapy, GCPA096T1V, single drug, 72 h, unit not given (compared with Cmax/Css in uM)), > 50 µM; in data set [12] (read-out: IC50 in monotherapy, GCPA096T1XV, single drug, 72 h, unit not given (compared with Cmax/Css in uM)) it was > 50 µM.

In the case of `Cc1nc(Nc2ncc(C(=O)Nc3c(C)cccc3Cl)s2)cc(N2CCN(CCO)CC2)n1` [Dasatinib], the pIC50 in data set [1] (Homo sapiens, 72 h) is < 4.70; in data set [2] (Homo sapiens, 72 h) it was < 4.70; in data set [3] (Homo sapiens, 72 h) it was < 4.70; in data set [4] (Homo sapiens, 72 h), 5.33; in data set [5] (Homo sapiens, 72 h), < 4.70; in [6] (Homo sapiens, 72 h) it was < 4.70. Moreover, the pIC50 in data set [7] (setting [16]) was 5.32; in [8] (setting [17]), < 4.70; in data set [9] (setting [17]), < 4.70; in [10] (Homo sapiens, 72 h), 4.74; in data set [11] (Homo sapiens, 72 h), < 4.70; in data set [12] (setting [17]), < 4.70. Further, the pIC50 in data set [13] (Homo sapiens, 72 h) is 4.85. Also, the “Cmax/Css plasma (Log 10)” value in data set [14] (human maximum or steady state plasma concentration, log10 of the uM value) is given as -0.9208 Log 10; in [14] (human plasma Cmax/Css, log10 of uM value, from phase I/II clinical trials) it was -0.9208 Log 10; in data set [14] (setting [18]), -0.9208 Log 10; in data set [14] (human plasma, maximum or steady state concentration, log10 of uM value) it was -0.9208; in [14] (human plasma, log10 of uM, phase I/II trials), -0.9208. For the same compound, the Cmax in [14] (human maximum or steady state plasma concentration) is 120 nM; in data set [14] (human plasma Cmax/Css, from phase I/II clinical trials) it was 120 nM; in [14] (setting [18]), 120 nM; in data set [14] (human plasma, maximum or steady state concentration), 120 nM; in data set [14] (human plasma, phase I/II trials) it was 120 nM.

Take `C[C@]12CC[C@@H]3c4ccc(O)cc4C[C@@H](CCCCCCCCC[S+]([O-])CCCC(F)(F)C(F)(F)F)[C@H]3[C@@H]1CC[C@@H]2O` (stereo partly drawn) [Fulvestrant]: the IC50 in monotherapy result in [1] (GCPA113T1II, monotherapy) is reported as “Infinit”. The negative logarithm of the IC50 (pIC50) in [2] (Homo sapiens, 72 h) was < 4.00; in data set [3] (Homo sapiens, 72 h), < 4.00; in data set [5] (Homo sapiens, 72 h) it was < 4.00; in data set [6] (Homo sapiens, 72 h), < 4.00; in data set [7] (setting [16]) it was < 4.00; in [8] (setting [17]), < 4.00. The pIC50 was < 4.00 in data set [9] (setting [17]); < 4.00 in [10] (Homo sapiens, 72 h); 4.48 in data set [11] (Homo sapiens, 72 h); < 4.00 in [12] (setting [17]); < 4.00 in data set [13] (Homo sapiens, 72 h).

`N#Cc1ccc(C(c2ccc(C#N)cc2)n2cncn2)cc1` [Letrozole]: the pIC50 is < 4.30 in [1] (Homo sapiens, 72 h); < 4.30 in data set [2] (Homo sapiens, 72 h); < 4.30 in data set [3] (Homo sapiens, 72 h); < 4.30 in [5] (Homo sapiens, 72 h); < 4.30 in data set [6] (Homo sapiens, 72 h); 4.45 in data set [7] (setting [16]). Also, the pIC50 in [8] (setting [17]) was < 4.30; in data set [9] (setting [17]), < 4.30; in [10] (Homo sapiens, 72 h), < 4.30; in data set [11] (Homo sapiens, 72 h), < 4.30; in data set [12] (setting [17]) it was < 4.30; in [13] (Homo sapiens, 72 h) it was < 4.30.

With `CC(=O)O[C@H]1C(=O)[C@@]2(C)[C@H]([C@H](OC(=O)c3ccccc3)[C@]3(O)C[C@H](OC(=O)[C@H](O)[C@@H](NC(=O)c4ccccc4)c4ccccc4)C(C)=C1C3(C)C)[C@]1(OC(C)=O)CO[C@@H]1C[C@@H]2O` [Paclitaxel], the pIC50 in data set [1] (Homo sapiens, 72 h) is 4.32; in [1] (Homo sapiens), 4.32; in data set [2] (Homo sapiens, 72 h), < 4.30; in [2] (Homo sapiens), < 4.30; in [3] (Homo sapiens, 72 h), < 4.30; in [4] (Homo sapiens, 72 h), < 4.30. For the same compound, the pIC50 in [4] (Homo sapiens) is < 4.30; in data set [5] (Homo sapiens, 72 h) it was < 4.30; in data set [5] (Homo sapiens), < 4.30; in data set [6] (Homo sapiens, 72 h), < 4.30; in data set [6] (Homo sapiens), < 4.30; in data set [7] (setting [16]), < 4.30. Also, the pIC50 in data set [7] (Homo sapiens, read-out: IC50 in monotherapy) is < 4.30; in [15] (Homo sapiens, median over AGCT cell lines, read-out: median IC50 in monotherapy), 4.03; in data set [8] (setting [17]) it was < 4.30; in [9] (setting [17]), < 4.30; in data set [10] (Homo sapiens, 72 h) it was < 4.30; in data set [10] (Homo sapiens), < 4.30. Besides, the pIC50 in data set [12] (setting [17]) is < 4.30; in [13] (Homo sapiens, 72 h), < 4.30; in [13] (Homo sapiens), < 4.30.

As to `CC/C(=C(\c1ccccc1)c1ccc(OCCN(C)C)cc1)c1ccccc1` [Tamoxifen], in data set [15] (range over AGCT cell lines, monotherapy), the “range IC10 (concentration needed to obtain 10% cell death)” value was 6.04 to 15.03 µM.

Take `CC(=O)[C@@]1(O)CC[C@H]2[C@@H]3CCC4=CC(=O)CCC4=C3[C@@H](c3ccc(N(C)C)cc3)C[C@@]21C` [Ulipristal]: the pIC50 was < 4.30 in data set [1] (Homo sapiens, 72 h); < 4.30 in data set [2] (Homo sapiens, 72 h); < 4.30 in data set [3] (Homo sapiens, 72 h); < 4.30 in [4] (Homo sapiens, 72 h); < 4.30 in data set [5] (Homo sapiens, 72 h); < 4.30 in data set [6] (Homo sapiens, 72 h). The pIC50 in data set [7] (setting [16]) was 4.36; in data set [8] (setting [17]) it was < 4.30; in data set [9] (setting [17]), < 4.30; in data set [10] (Homo sapiens, 72 h) it was < 4.30; in data set [11] (Homo sapiens, 72 h) it was 4.30; in [12] (setting [17]), < 4.30. For the same compound, the pIC50 in data set [13] (Homo sapiens, 72 h) is < 4.30.
